Measured values reported in patent US20070197590A1, “SUBSTITUTED DIPIPERIDINE CCR2 ANTAGONISTS” (priority 2006, published 2007).

Target: T1, CCR2 (Homo sapiens, UniProt P41597)
T1 construct: host or cells: THP-1 cells
T1 sequence (P41597 1-360 isoform P41597-2): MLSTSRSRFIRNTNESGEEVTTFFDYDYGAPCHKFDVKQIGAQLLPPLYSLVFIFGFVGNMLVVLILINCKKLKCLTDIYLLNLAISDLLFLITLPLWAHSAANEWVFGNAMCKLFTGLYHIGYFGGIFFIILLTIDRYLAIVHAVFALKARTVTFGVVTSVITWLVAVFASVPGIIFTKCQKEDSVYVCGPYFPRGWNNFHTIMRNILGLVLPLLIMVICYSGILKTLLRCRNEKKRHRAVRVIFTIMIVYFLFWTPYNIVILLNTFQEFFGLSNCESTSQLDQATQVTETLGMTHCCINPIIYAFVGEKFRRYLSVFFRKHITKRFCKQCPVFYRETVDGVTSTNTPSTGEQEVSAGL
Assay: MCP-1 Receptor Binding Assay in THP-1 Cells
Conditions: THP-1 cells, 0.5 nM 125I labeled MCP-1, 2 hours at 30° C.; read-out: Inhibition of MCP-1 Binding IC50
Description: THP-1 cells were obtained from American Type Culture Collection (Manassas, Va., USA). The THP-1 cells were grown in RPMI-1640 supplemented with 10% fetal bovine serum in a humidified 5% CO2 atmosphere at 37° C. The cell density was maintained […].
THP-1 cells were incubated with 0.5 nM ^125, labeled MCP-1 (Perkin-Elmer Life Sciences, Inc. Boston, Mass.) in the presence of varying concentrations of either unlabeled MCP-1 (R & D Systems, Minneapolis, Minn.) or test compound for 2 hours at 30° C. in a 96 well plate. Cells were then harvested onto a filter plate, dried, and 20 μL of Microscint 20 was added to each well. Plates were counted in a TopCount NXT, Microplate Scintillation & Luminescence Counter (Perkin-Elmer Life Sciences, Inc. Boston, Mass.). Blank values (buffer only) were subtracted from all values and drug treated values were compared to vehicle treated values. 1 μM cold MCP-1 was used for nonspecific binding.
Table 1 lists IC50 values for inhibition of MCP-1 binding to CCR2 obtained for test compounds of the invention.

Structure (SMILES) | IC50 [nM]
O=C(c1cc(F)c(F)c(F)c1)N1CCC(C(O)CN2CCC(c3c[nH]c4ccccc34)CC2)CC1 (stereo not drawn) [Compound 8, (4-{1-hydroxy-2-[4-(1H-indol-3-yl)-piperidin-1-yl]-ethyl}-piperidin-1-yl)-(3,4,5-trifluoro-phenyl)-methanone] | 6400
O=C(/C=C/c1cc(F)c(F)c(F)c1)N1CCC(C(O)CN2CCC(c3cc[nH]n3)CC2)CC1 (stereo not drawn) [Compound 35] | 1200
O=C(Nc1ccc(Cl)c(Cl)c1)N1CCC(C(O)CN2CCC(c3cc[nH]n3)CC2)CC1 (stereo not drawn) [Compound 36, 4-{1-hydroxy-2-[4-(1H-pyrazol-3-yl)-piperidin-1-yl]-ethyl}-piperidine-1-carboxylic acid (3,4-dichloro-phenyl)-amide] | 1100
O=C(Nc1ccc(F)c(F)c1)N1CCC(C(O)CN2CCC(c3cc[nH]n3)CC2)CC1 (stereo not drawn) [Compound 37, 4-{1-hydroxy-2-[4-(1H-pyrazol-3-yl)-piperidin-1-yl]-ethyl}-piperidine-1-carboxylic acid (3,4-difluoro-phenyl)-amide] | 8600
O=C(/C=C/c1cc(F)cc(F)c1)N1CCC(C(O)CN2CCC(c3nc4ccccc4o3)CC2)CC1 (stereo not drawn) [Compound 46] | 2100
O=C(/C=C/c1cc(F)cc(F)c1)N1CCC(CC(CO)N2CCC(c3c[nH]c4ccccc34)CC2)CC1 (stereo not drawn) [Compound 54] | 5600
O=C(/C=C/c1cc(F)c(F)c(F)c1)N1CCC(CC(CO)N2CCC(c3c[nH]c4ccccc34)CC2)CC1 (stereo not drawn) [Compound 55] | 3500
Cc1cccc(/C=C/C(=O)N2CCC(CC(CO)N3CCC(c4c[nH]c5ccccc45)CC3)CC2)c1 (stereo not drawn) [Compound 57] | 2600
OCC(CC1CCN(C(=S)Nc2cccc(Br)c2)CC1)N1CCC(c2c[nH]c3ccccc23)CC1 (stereo not drawn) [Compound 59, 4-{3-hydroxy-2-[4-(1H-indol-3-yl)-piperidin-1-yl]-propyl}-piperidine-1-carbothioic acid (3-bromo-phenyl)-amide] | 6100
O=C(OCc1ccccc1)N1CCC(O)(C(O)CN2CCC(c3c[nH]c4ccccc34)CC2)CC1 (stereo not drawn) [Compound 69, 4-hydroxy-4-{1-hydroxy-2-[4-(1H-indol-3-yl)-piperidin-1-yl]-ethyl}-piperidine-1-carboxylic acid benzyl ester] | 950
O=C(/C=C/c1cc(C(F)(F)F)cc(C(F)(F)F)c1)N1CCC(O)(C(O)CN2CCC(c3c[nH]c4ccccc34)CC2)CC1 (stereo not drawn) [Compound 72] | 700
OC(CN1CCC(c2c[nH]c3ccccc23)CC1)C1(O)CCN(C(=S)Nc2cc(Cl)cc(Cl)c2)CC1 (stereo not drawn) [Compound 83, 4-hydroxy-4-{1-hydroxy-2-[4-(1H-indol-3-yl)-piperidin-1-yl]-ethyl}-piperidine-1-carbothioic acid (3,5-dichloro-phenyl)-amide] | 860
COc1ccc(C2CCN(CC(O)C3CCN(C(=O)Nc4cc(F)cc(C(F)(F)F)c4)CC3)CC2)cc1 (stereo not drawn) [Compound 91, 4-{1-hydroxy-2-[4-(4-methoxy-phenyl)-piperidin-1-yl]-ethyl}-piperidine-1-carboxylic acid (3-fluoro-5-trifluoromethyl-phenyl)-amide] | 810

Further lines, results first:

IC50 [nM] | Structure (SMILES)
4400 | O=C(C(=O)N1CCC(c2ccc(Cl)cc2)CC1)C1CCN(C(=O)C=Cc2ccc(Cl)c(Cl)c2)CC1 [Compound 2, 1-[4-(4-chloro-phenyl)-piperidin-1-yl]-2-{1-[3-(3,4-dichloro-phenyl)-acryloyl]-piperidin-4-yl}-ethane-1,2-dione]
3400 | O=C(/C=C/c1ccc(Cl)c(Cl)c1)N1CCC(C(O)C(=O)N2CCC(c3ccc(Cl)cc3)CC2)CC1 (stereo not drawn) [Compound 3]
9400 | O=C(CN1CCC(c2c[nH]c3ncccc23)CC1)C1CCN(C(=O)/C=C/c2cc(F)c(F)c(F)c2)CC1 [Compound 17, 1-(4-{2-[4-(1H-pyrrolo[2,3-b]pyridin-3-yl)-piperidin-1-yl]-acetyl}-piperidin-1-yl)-3-(3,4,5-trifluoro-phenyl)-propenone]
1400 | Cc1cccc(/C=C/C(=O)N2CCC(C(O)CN3CCC(c4cc[nH]n4)CC3)CC2)c1 (stereo not drawn) [Compound 33]
4700 | CCOC(=O)C(CN1CCC(c2ccc(OC)cc2)CC1)C1CCN(C(=O)C=Cc2cc(F)c(F)c(F)c2)CC1 (stereo not drawn) [Compound 38, 3-[4-(4-methoxy-phenyl)-piperidin-1-yl]-2-{1-[3-(3,4,5-trifluoro-phenyl)-acryloyl]-piperidin-4-yl}-propionic acid ethyl ester]
3900 | Cc1cccc(/C=C/C(=O)N2CCC(C(O)CN3CCC(c4nc5ccccc5o4)CC3)CC2)c1 (stereo not drawn) [Compound 47]
5700 | O=C(/C=C/c1ccc(Cl)c(Cl)c1)N1CCC(CC(CO)N2CCC(c3c[nH]c4ccccc34)CC2)CC1 (stereo not drawn) [Compound 56]
1300 | COc1ccc(C2CCN(CC(=O)C3CCN(C(=O)/C=C/c4cc(F)c(F)c(F)c4)CC3)CC2)cc1 [Compound 64, 1-(4-{2-[4-(4-methoxy-phenyl)-piperidin-1-yl]-acetyl}-piperidin-1-yl)-3-(3,4,5-trifluoro-phenyl)-propenone]
2700 | COc1ccc(C2CCN(CC(NC(=O)N(C)C)C3CCN(C(=O)C=Cc4cc(F)c(F)c(F)c4)CC3)CC2)cc1 (stereo not drawn) [Compound 68, 3-(2-[4-(4-methoxy-phenyl)-piperidin-1-yl]-1-{1-[3-(3,4,5-trifluoro-phenyl)-acryloyl]-piperidin-4-yl}-ethyl)-1,1-dimethyl-urea]
480 | COc1ccc(C2CCN(CC(O)C3(O)CCN(C(=O)/C=C/c4ccc(Cl)cc4)CC3)CC2)cc1 (stereo not drawn) [Compound 92]

Same assay, conditions: test concentration of 25 μM; given where an IC50 value was not obtained; read-out: Inhibition of MCP-1 Binding, percent inhibition

Structure (SMILES) | inhibition at 25 µM [%]
CCOC(=O)C(CC1CCN(C(=O)C=Cc2cccc(C)c2)CC1)N1CCC(c2c[nH]c3ccccc23)CC1 (stereo not drawn) [Compound 48, 2-[4-(1H-indol-3-yl)-piperidin-1-yl]-3-[1-(3-m-tolyl-acryloyl)-piperidin-4-yl]-propionic acid ethyl ester] | 48
CCOC(=O)C(CC1CCN(C(=O)C=Cc2cc(F)c(F)c(F)c2)CC1)N1CCC(c2c[nH]c3ccccc23)CC1 (stereo not drawn) [Compound 50, 2-[4-(1H-indol-3-yl)-piperidin-1-yl]-3-{1-[3-(3,4,5-trifluoro-phenyl)-acryloyl]-piperidin-4-yl}-propionic acid ethyl ester] | 44
CCOC(=O)C(CC1CCN(C(=O)C=Cc2cc(F)cc(F)c2)CC1)N1CCC(c2c[nH]c3ccccc23)CC1 (stereo not drawn) [Compound 51, 3-{1-[3-(3,5-difluoro-phenyl)-acryloyl]-piperidin-4-yl}-2-[4-(1H-indol-3-yl)-piperidin-1-yl]-propionic acid ethyl ester] | 48
CCOC(=O)C(CC1CCN(C(=O)Nc2ccc(Cl)c(Cl)c2)CC1)N1CCC(c2c[nH]c3ccccc23)CC1 (stereo not drawn) [Compound 52, 3-[1-(3,4-dichloro-phenylcarbamoyl)-piperidin-4-yl]-2-[4-(1H-indol-3-yl)-piperidin-1-yl]-propionic acid ethyl ester] | 53
CC(C)(C)OC(=O)N1CCC(C(O)CN2CCC(c3c[nH]c4ccc(NS(C)(=O)=O)cc34)CC2)CC1 (stereo not drawn) [Compound 63, 4-{1-hydroxy-2-[4-(5-methanesulfonylamino-1H-indol-3-yl)-piperidin-1-yl]-ethyl}-piperidine-1-carboxylic acid tert-butyl ester] | 46

Second part, the compound after the results:

inhibition at 25 µM [%] | Structure (SMILES)
52 | COc1ccc(C2CCN(CC(C(=O)O)C3CCN(C(=O)C=Cc4cc(F)c(F)c(F)c4)CC3)CC2)cc1 (stereo not drawn) [Compound 39, 3-[4-(4-methoxy-phenyl)-piperidin-1-yl]-2-{1-[3-(3,4,5-trifluoro-phenyl)-acryloyl]-piperidin-4-yl}-propionic acid]
40 | CCOC(=O)C(CC1CCN(C(=O)C=Cc2ccc(Cl)c(Cl)c2)CC1)N1CCC(c2c[nH]c3ccccc23)CC1 (stereo not drawn) [Compound 49, 3-{1-[3-(3,4-dichloro-phenyl)-acryloyl]-piperidin-4-yl}-2-[4-(1H-indol-3-yl)-piperidin-1-yl]-propionic acid ethyl ester]
48 | Cc1cccc(C=CC(=O)N2CCC(CC(C(=O)O)N3CCC(c4c[nH]c5ccccc45)CC3)CC2)c1 (stereo not drawn) [Compound 53, 2-[4-(1H-indol-3-yl)-piperidin-1-yl]-3-[1-(3-m-tolyl-acryloyl)-piperidin-4-yl]-propionic acid]
55 | O=C(O)C(CC1CCN(C(=O)Nc2ccc(Cl)c(Cl)c2)CC1)N1CCC(c2c[nH]c3ccccc23)CC1 (stereo not drawn) [Compound 62, 3-[1-(3,4-dichloro-phenylcarbamoyl)-piperidin-4-yl]-2-[4-(1H-indol-3-yl)-piperidin-1-yl]-propionic acid]
87 | COc1ccc(C2CCN(CC(O)C3CCN(C(=O)Nc4cc(Cl)c(Cl)cc4F)CC3)CC2)cc1 (stereo not drawn) [Compound 90, 4-{1-hydroxy-2-[4-(4-methoxy-phenyl)-piperidin-1-yl]-ethyl}-piperidine-1-carboxylic acid (4,5-dichloro-2-fluoro-phenyl)-amide]
